According to patent US20030139332A1, “Use of matrix metalloproteinase inhibitors to mitigate nerve damage” (The Regents of the University of California, priority 2001, published 2003):
Entries after “also recorded” stand apart in the source; their conditions may differ.

Tests used:
[1] = system: blood-spinal cord barrier; experiment: Blood-spinal cord barrier permeability to horseradish peroxidase (HRP) after contusive spinal cord injury; type: in vivo, mouse; details: 24 hours post injury, GM 6001 100 mg/kg i.p. from 3 hours post injury, compared to wild type; for blood-spinal cord barrier permeability to HRP at the lesion epicenter: wild type mice, every 12 hours
Experimental: (§1) Adult, male mice (4-6 months of age), were anesthetized with 2.5% Avertin (0.02 ml/g bw, i.p.) and maintained at 37° C. throughout the experiment by using a warming blanket placed under the animal. […] Briefly, using aseptic techniques the spinous process and laminae of T8 were removed and a circular region of dura, approximately 2.4 mm in diameter, was exposed. After stabilization of the vertebral column, a 2 gm weight was dropped 5.0 cm onto the exposed dura. After injury, the overlying skin was closed with wound clips. Postoperative care included manual expression of each animal's bladder until recovery of reflex emptying.
(§2) Wild type mice were subjected to spinal cord injury as described in the previous section. […] Animals were treated every 12 hours (100 mg/kg in 4% methylcellulose, i.p.), for the first 3 days post injury.

[2] = system: blood-spinal cord barrier; experiment: Blood-spinal cord barrier permeability to luciferase after spinal cord injury; type: in vivo, mouse; details: 24 hours post injury, GM6001 begun at 3 hours after injury, N=6, vs vehicle N=4, P=0.04
Experimental: as §1, §2

neutrophils = experiment: Neutrophil infiltration into the lesion (chloroacetate esterase stain) after spinal cord injury; type: in vivo, mouse; details: 24 hours post injury; GM6001 N=4 vs vehicle N=4; P=0.01
Experimental: Adult, male mice (4-6 months of age), were anesthetized with 2.5% Avertin (0.02 ml/g bw, i.p.) and maintained at 37° C. throughout the experiment by using a warming blanket placed under the animal. A contusive injury was performed based upon modifications of procedures originally described by Kuhn and Wrathall (1998) J. Neurotrauma 15:125-140. Briefly, using aseptic techniques the spinous process and laminae of T8 were removed and a circular region of dura, approximately 2.4 mm in diameter, was exposed. After stabilization of the vertebral column, a 2 gm weight was dropped 5.0 cm onto the exposed dura. After injury, the overlying skin was closed with wound clips. Postoperative care included manual expression of each animal's bladder until recovery of reflex emptying. […]
The protocol was as described by the manufacturer with several exceptions. […] The number of neutrophils within each of these sections was determined from digital images, captured with a CCD camera, as described in the preceding paragraph at 40×magnification. […] Only darkly stained structures, greater than 38 μm^2 (7 μm in diameter) were counted. For the rostral and caudal sections, the numbers of neutrophils within the entire cross sections were determined and summed. For the epicenter, neutrophils were quantified within specific regions of the cross section. […]

spinal cord injured mice = experiment: Locomotor recovery after spinal cord injury, open field BBB Locomotor Rating Scale; type: in vivo, mouse; details: over 6 weeks post injury, GM6001 N=9 vs vehicle N=4, treatment 3 hours to 3 days post injury
Experimental: as §1, §2
This scale assesses 10 distinct categories that range from limb movement to tail position and involve detailed observations of joint movement, stepping, and coordination. […] Spinal cord injured animals were tested on days 1 and 3 post injury and weekly thereafter for 6 weeks. […] Positioning of the limbs and locomotion was then observed by either directly or indirectly (via the mirror) viewing the animal.

spinal cord white matter = experiment: Area of residual white matter at the lesion epicenter (Luxol fast blue); type: in vivo, mouse; details: 42 days post injury, GM6001 vs vehicle, P=0.01
Experimental: Adult, male mice (4-6 months of age), were anesthetized with 2.5% Avertin (0.02 ml/g bw, i.p.) and maintained at 37° C. throughout the experiment by using a warming blanket placed under the animal. A contusive injury was performed based upon modifications of procedures originally described by Kuhn and Wrathall (1998) J. Neurotrauma 15:125-140. Briefly, using aseptic techniques the spinous process and laminae of T8 were removed and a circular region of dura, approximately 2.4 mm in diameter, was exposed. After stabilization of the vertebral column, a 2 gm weight was dropped 5.0 cm onto the exposed dura. After injury, the overlying skin was closed with wound clips. Postoperative care included manual expression of each animal's bladder until recovery of reflex emptying.
Wild type mice were subjected to spinal cord injury as described in the previous section. All mice were treated with either GM 6001 (AMS Scientific, Inc., Concord, Calif. 100 mg/kg in 4% methylcellulose, i.p.), a general inhibitor of MMPs, or vehicle (4% methylcellulose, i.p.), at 3 hours post injury. […]
The area of residual white matter at the epicenter was determined in vehicle-and drug-treated wild type mice at 42 days post injury. […] These sections were captured with a Spotcam camera mounted on a Nikon Optiphot and analyzed using Photoshop 6.0™. […] These pixels were quantified and expressed per unit area.

[3] = system: MMP-9 and other gelatinases; experiment: Gelatin zymography of injured spinal cord extracts with metalloproteinase inhibitor control; type: biochemical, mouse; details: substrate gels incubated with 4 mM 1,10-phenanthroline
Experimental: Samples of spinal cord, prepared from the epicenter, were quick-frozen at −80° C. Each sample was weighed and homogenized in (1:4 weight to volume) in lysis buffer containing 50 mM Tris-HCl (pH 8.0), 150 mM NaCl, 1% NP-40, 0.5% deoxycholate, 0.1% SDS. Soluble and insoluble extracts were separated by centrifugation and stored at −20° C. Equal amounts of the supernatant were analyzed by gel zymography as previously described (Herron et al., 1986) on 10% SDS-polyacrylamide gels, copolymerized with substrate (1 mg/ml gelatin). The proteins were renatured by incubation in 2.5% Triton-X100, and then incubated in substrate buffer (50 mM Tris-HCl, […]) for 24 to 36 hours at 37° C. to enable the MMP-9 and other gelatinases to cleave the gelatin. After rinsing in water, each gel was stained with Coomassie Blue for 4 hours and destained in 50% methanol. Negative staining is indicative of the location of active protease bands. After exposure to SDS during gel separation, proenzymes, present in tissue extracts, are activated without proteolytic cleavage. To inhibit MMP proteolytic activities, substrate gels were incubated in substrate buffer with 4 mM 1,10-phenanthroline (Sigma, St. Louis, Mo.), as described (Adler et al. 1990) Development 110:211-220). This control ensured that the measured activity corresponded to matrix metalloproteinase activity. […]

CNC(=O)[C@H](Cc1c[nH]c2ccccc12)NC(=O)[C@@H](CC(=O)NO)CC(C)C [GM6001]
axial distribution of abnormal barrier permeability to HRP (segments rostral and caudal to the lesion) [1]: not observed
blood-spinal cord barrier permeability to HRP at the lesion epicenter ([1]; 100 mg/kg): marked increase in permeability to HRP in the wild type mice as compared to
blood-spinal cord barrier permeability to HRP at the lesion epicenter ([1]; listed as GM 6001, 100 mg/kg): only light patches of HRP reaction product in the epicenter
abnormal barrier permeability to luciferase in the epicenter [2]: significant reduction in barrier permeability
abnormal barrier permeability to luciferase in the epicenter ([2]; listed as GM 6001): significantly attenuated
numbers of neutrophils within the lesion epicenter (neutrophils): significant reduction in the numbers of neutrophils
locomotor recovery (BBB Locomotor Rating Scale, 21 point scale) (spinal cord injured mice): greater locomotor
locomotor recovery (BBB Locomotor Rating Scale, 21 point scale) (spinal cord injured mice; listed as GM 6001): significant locomotor recovery as early as 3 days post injury and weekly thereafter
area of residual white matter at the lesion epicenter (spinal cord white matter): significantly greater preservation of white matter
area of residual white matter at the lesion epicenter (spinal cord white matter; listed as GM 6001): significant preservation of white matter

c1cnc2c(c1)ccc1cccnc12 [1,10 phenanthroline, 1,10-phenanthroline]
gelatinolytic activity (inactive and active forms of MMP-9 and MMP-2) in gelatin zymography [3]: completely blocked the gelatinolytic activity; also recorded: completely blocks the inactive and active forms
